Measurements published in patent US20200060273A1, “FUNGICIDAL COMPOSITIONS” (Novus International, Inc., priority 2018, published 2020).
Like-named read-outs stand apart in the source and are kept apart here.

Columns and labels:
[1] = test system: Podosphaera xanthii (powdery mildew); assay: in vitro leaf disc assay on cucumber cotyledons; format: cell-based
Botrytis cinerea = assay: in vitro mycelial disc assay; format: cell-based
lettuce = details: in vivo
Experimental: (§1) These experiments were carried out to test the phytotoxic effects of HMTBA on cucurbit (cucumber), strawberry, pepper, and lettuce target crops. Young plants of Jackson Classic variety cucumber, Tango variety head lettuce, Compadre variety bell pepper, and Festival variety strawberry were grown under standard greenhouse conditions. One week-post planting cucumber and pepper plants, three week old lettuce, and four month old strawberry plants were treated.
(§2) Foliar sprays for HMTBA dilutions at 0.01, 0.1, 0.2 and 1.0% ai/v were applied twice per week for two weeks (total of four applications).
(§3) Height and width for each plant was measured (centimeters) for indication of growth changes between treated and untreated plants. Phytotoxicity ratings were taken weekly on a 0-10 scale, where 0 indicates no crop injury and 10 is damage (yellowing, scarring, wilting, necrosis, death) to the total plant from the treatment.
(§4) Area Under Disease Progress Curve (AUDPC), Abbot's formulation for percent control and all statistics were analyzed using ANOVA mean comparison with LSD test and a=0.05. Bartlett's test for homogeneity of variances was used to determine the need for data transformations. Letters in tables represent means separation significant and 0.05.

Fusarium graminearum = format: cell-based
pepper = details: in vivo
Experimental: as §1, §2, §3, §4

strawberry = details: in vivo
Experimental: as §1, §2, §3, §4

cucumber = details: in vivo
Experimental: as §1, §2, §3, §4

SMILES: CO/C=C(/C(=O)OC)c1ccccc1Oc1cc(Oc2ccccc2C#N)ncn1 [Azoxystrobin, azoxystrobin]
- P. xanthii % Control ([1]; Azoxystrobin 0.00001% ai/v): 17.66% de
- Pest Severity Score 0-4 ([1]; Azoxystrobin 0.00001% ai/v): 2.67 ab
- P. xanthii % Control ([1]; Azoxystrobin 0.0001% ai/v): 44.23% c
- Pest Severity Score 0-4 ([1]; Azoxystrobin 0.0001% ai/v): 1.75 c
- P. xanthii % Control ([1]; Azoxystrobin 0.1% ai/v): 97.62% a
- Pest Severity Score 0-4 ([1]; Azoxystrobin 0.1% ai/v): 0.08 e

SMILES: O=C1C2CC=CCC2C(=O)N1SC(Cl)(Cl)Cl (stereo not shown) [Captan, captan]
- B. cinerea Mycelial Growth % Control (Botrytis cinerea; Captan 0.001% ai/v): 21.05% cd
- B. cinerea Mycelial Growth Diameter (cm) (Botrytis cinerea; Captan 0.001% ai/v): 1.68 bc cm
- B. cinerea Mycelial Growth % Control (Botrytis cinerea; Captan 0.01% ai/v): 53.68% b
- B. cinerea Mycelial Growth Diameter (cm) (Botrytis cinerea; Captan 0.01% ai/v): 0.97 cm·days
- B. cinerea Mycelial Growth % Control (Botrytis cinerea; Captan 1% ai/v): 96.81% a
- B. cinerea Mycelial Growth Diameter (cm) (Botrytis cinerea; Captan 1% ai/v): 0.07 e cm

SMILES: CSCCC(O)C(=O)O (stereo not shown) [HMTBA, 2-hydroxy-4(methylthio)butanoic acid]
- phytotoxic effects (lettuce): no phytotoxic effects were recorded
- plant growth (height and width) (lettuce): unchanged from the untreated check
- B. cinerea Mycelial Growth % Control (Botrytis cinerea; 0.1% HMTBA): 10.08% de
- B. cinerea Mycelial Growth Diameter (cm) (Botrytis cinerea; 0.1% HMTBA): 2.03 ab cm
- F. graminiearum % Control (Fusarium graminearum; 0.1% HMTBA): 4.93% ef
- Spore Diameter (cm) (Fusarium graminearum; 0.1% HMTBA): 1.47 a cm
- Pepper Phytotoxicity Rating (0-10) (pepper; Compadre variety, pepper): 0.0 a
- phytotoxic effects (pepper): no phytotoxic effects were recorded
- plant growth (height and width) (pepper): unchanged from the untreated check
- Strawberry Phytotoxicity Rating (0-10) (strawberry; Festival variety, strawberry): 0.0 a
- phytotoxic effects (strawberry): no phytotoxic effects were recorded
- plant growth (height and width) (strawberry): unchanged from the untreated check
- phytotoxic effects (cucumber): no phytotoxic effects were recorded
- plant growth (height and width) (cucumber): unchanged from the untreated check
- P. xanthii % Control ([1]; 0.1% HMTBA): 4.46% ef
- Pest Severity Score 0-4 ([1]; 0.1% HMTBA): 3.17 a

SMILES: CC1(C)CCC(Cc2ccc(Cl)cc2)C1(O)Cn1cncn1 (stereo not shown) [Metconazole, metconazole]
- F. graminiearum % Control (Fusarium graminearum; Metconazole 0.001% ai/v): 27.80% cde
- Spore Diameter (cm) (Fusarium graminearum; Metconazole 0.001% ai/v): 1.00 b cm
- F. graminiearum % Control (Fusarium graminearum; Metconazole 0.01% ai/v): 66.98% ab
- Spore Diameter (cm) (Fusarium graminearum; Metconazole 0.01% ai/v): 0.50 cd cm
- F. graminiearum % Control (Fusarium graminearum; Metconazole 1% ai/v): 93.08% a
- Spore Diameter (cm) (Fusarium graminearum; Metconazole 1% ai/v): 0.17 cm·days
